Data taken from patent US20080234202A1, “Non-natural amino acids and neurotensin analogues” (priority 2004, published 2008).
Where a SMILES comes first, the peptide text is derived from it. [ ]: non-standard residue; d: D form. The star is where a group is joined. Tle = CC(C)(C)[C@H](N)C(=O)O; X1 = C[C@@H](CCCCCN)C(=O)*

Key:
CYP1A2 = target: T1, CYP1A2 (Homo sapiens, UniProt P05177); test: Liver CYP screening: CYP1A2; details: 10^−3, 10^−2, 0.1 M
T1 sequence (P05177 1-516): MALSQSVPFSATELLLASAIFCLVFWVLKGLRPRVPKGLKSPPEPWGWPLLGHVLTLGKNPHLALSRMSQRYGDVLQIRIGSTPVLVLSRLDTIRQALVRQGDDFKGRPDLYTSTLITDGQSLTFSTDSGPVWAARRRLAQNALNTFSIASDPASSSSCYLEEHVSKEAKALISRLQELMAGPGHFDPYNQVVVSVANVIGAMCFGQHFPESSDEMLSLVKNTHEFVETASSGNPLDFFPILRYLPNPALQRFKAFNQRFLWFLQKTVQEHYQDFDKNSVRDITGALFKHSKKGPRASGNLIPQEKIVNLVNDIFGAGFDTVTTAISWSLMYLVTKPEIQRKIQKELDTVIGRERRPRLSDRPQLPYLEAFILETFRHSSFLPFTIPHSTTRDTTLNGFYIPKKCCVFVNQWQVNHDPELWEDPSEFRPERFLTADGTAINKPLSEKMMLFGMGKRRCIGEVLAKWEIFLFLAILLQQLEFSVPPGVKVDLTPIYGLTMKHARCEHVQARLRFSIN
Text: (§1) Liver Receptor Screening (Stanford Research Institute Study B213-06).

mouse bone marrow cells = test: Micronucleus study; format: in vivo; details: oral, CD-1 mice; initial data
Protocol: Genetic Toxicology. […] Experimental protocols are as follows.
In the micronucleus study, 90 CD-1 mice used in the study consisted of 10/sex/group in Groups 1-4 (control, low-, mid-, and high-dose) and 5/sex in the positive control group. Test peptide as administered orally, the positive control, Cyclophosphamide at 80 mg/kg, as administered orally. Approximately 24 and 48 hours after dosing, mice were killed and bone marrow obtained from both femurs. A slide of a bone marrow suspension was prepared, stained with Wright-Giemsa stain, dried, and scored blind. The number of polychromatic erythrocytes (PCE) among the total erythrocytes (PCE+normochromatic erythrocytes (NCE)) were determined for each animal by counting at least 200 erythrocytes. The number of micronucleated polychromatic erythrocytes (MPCE) then were scored for 2000 PCE per animal. A positive result was obtained if there is a positive dose-response trend or statistically significant increase in the number of MPCE at one or more dose levels compared to controls.

CYP2C9 = CYP2C9 (Homo sapiens, UniProt P11712); test: Liver CYP screening: CYP2C9; details: 10^−3, 10^−2, 0.1 M
Text: as §1

[1] = Protocol: These samples were used for the determination of plasma drug by LC/MS/MS for estimating pharmacokinetic parameters and segmental absorption. The bioavailability of intra-stomach, intra-duodenum, intra-jejunum, intra-colon administration relative to intravenous administration and gavage was calculated.
[2] = target: hERG (human ether-a-go-go related gene) channels (Homo sapiens, UniProt Q12809); details: HEK293, 35±2° C.; initial results
Protocol: hERG Assay. The objective of the hERG study is to assess the effects of the test article on the rapidly activating inward rectifying potassium current (IKr) conducted by hERG (human ether-a-go-go related gene) channels stably expressed in a HEK293 cell line. The method used is as follows. HEK293 cells, stably transfected with hERG cDNA, were used in the study. All experiments were performed at near-physiological temperature (35±2° C.). A positive control (60 nM terfenadine) was applied to two cells (n≧2). Cells were be transferred to the recording chamber and superfused with HB-PS solution. The recording chamber and bathing solution were maintained at a temperature of 35±2° C. using a combination of in-line solution pre-heater, chamber floor heater, and feedback temperature controller. Bath temperature were measured using a thermistor probe.
Patch pipettes were made from glass capillary tubing using a P-97 micropipette puller (Sutter Instruments, Calif.). A commercial patch clamp amplifier was used for whole cell recordings. Before digitization, current records were low-pass filtered at one-fifth of the sampling frequency.
Cells stably expressing hERG were held at −80 mV.

CYP2B6 = target: T2, CYP2B6 (Homo sapiens, UniProt P20813); test: Liver CYP screening: CYP2B6; details: 10^−3, 10^−2, 0.1 M
T2 sequence (P20813 1-491): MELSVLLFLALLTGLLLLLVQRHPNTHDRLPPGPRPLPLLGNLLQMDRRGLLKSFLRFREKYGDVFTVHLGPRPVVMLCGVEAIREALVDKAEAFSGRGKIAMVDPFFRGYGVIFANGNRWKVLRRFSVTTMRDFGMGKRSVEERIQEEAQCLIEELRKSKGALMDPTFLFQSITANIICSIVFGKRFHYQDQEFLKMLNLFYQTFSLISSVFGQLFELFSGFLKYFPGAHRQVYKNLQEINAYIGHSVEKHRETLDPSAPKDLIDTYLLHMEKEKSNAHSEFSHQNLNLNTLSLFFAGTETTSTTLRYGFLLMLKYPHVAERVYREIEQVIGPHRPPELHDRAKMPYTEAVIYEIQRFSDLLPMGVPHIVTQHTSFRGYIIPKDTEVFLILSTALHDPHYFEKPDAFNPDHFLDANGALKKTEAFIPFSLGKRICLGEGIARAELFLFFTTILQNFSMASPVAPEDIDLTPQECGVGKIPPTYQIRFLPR
Text: as §1

[3] = whole blood, 5 or 30 min at 37° C.
[4] = Acute toxicity, clinical observation and maximum tolerated dose in rats; format: in vivo, rat
Protocol: During the 2 and 24 hour post-dosing clinical observation periods, measurements of core body temperatures were taken.

[5] = Catalepsy, horizontal bar test; details: Table 11
Protocol: Cataleptic Analysis. In laboratory tests, catalepsy is characterized by the inability of an animal to correct its position after placement in an unnatural posture. […] To circumvent these potential confounding factors, tests are performed on an animal only once in a quiet, controlled environment.
Catalepsy Assessment. […] Rats were given an IP injection of peptide (5 mg/Kg), saline, or haloperidol (1 mg/kg). After 3 hours, catalepsy was measured using the horizontal bar test. Briefly, the front paws were placed directly on a horizontal bar 5 mm in diameter placed 7.5 cm above the cage floor. The rat was held in this position for 3 sec and then released. The time from release until the paws return to the cage floor was measured and recorded. A cut-off time of 30 sec was observed; this indicated a fully cataleptic animal as cataleptic animals are frozen to the bar. […] Measures were repeated every 30 min for 4 hr. Data are means±SEM (p<0.01).
After 2 h, catalepsy was measured using the horizontal bar test. Data are means±SEM (p<0.01).

CYP2D6 = CYP2D6 (Homo sapiens, UniProt P10635); test: Liver CYP screening: CYP2D6; details: 10^−3, 10^−2, 0.1 M
Text: as §1

[6] = 5 or 30 min incubation at 37° C.
CYP2C19 = CYP2C19 (Homo sapiens, UniProt P33261); test: Liver CYP screening: CYP2C19; details: 10^−3, 10^−2, 0.1 M
Text: as §1

CYP3A4 = CYP3A4 (Homo sapiens, UniProt P08684); test: Liver CYP screening: CYP3A4; details: 10^−3, 10^−2, 0.1 M
Text: as §1

[7] = Blood and plasma pharmacokinetics of ABS201 in rats
Text: At selected time points, blood was removed or brain harvested and the concentration of the peptide analog determined using LC/MS/MS.
These samples were then used for the determination of plasma and brain drug levels by LC/MS/MS for estimating BBB penetration and pharmacokinetic parameters.

CYP2C19, sequence (P33261 whole entry): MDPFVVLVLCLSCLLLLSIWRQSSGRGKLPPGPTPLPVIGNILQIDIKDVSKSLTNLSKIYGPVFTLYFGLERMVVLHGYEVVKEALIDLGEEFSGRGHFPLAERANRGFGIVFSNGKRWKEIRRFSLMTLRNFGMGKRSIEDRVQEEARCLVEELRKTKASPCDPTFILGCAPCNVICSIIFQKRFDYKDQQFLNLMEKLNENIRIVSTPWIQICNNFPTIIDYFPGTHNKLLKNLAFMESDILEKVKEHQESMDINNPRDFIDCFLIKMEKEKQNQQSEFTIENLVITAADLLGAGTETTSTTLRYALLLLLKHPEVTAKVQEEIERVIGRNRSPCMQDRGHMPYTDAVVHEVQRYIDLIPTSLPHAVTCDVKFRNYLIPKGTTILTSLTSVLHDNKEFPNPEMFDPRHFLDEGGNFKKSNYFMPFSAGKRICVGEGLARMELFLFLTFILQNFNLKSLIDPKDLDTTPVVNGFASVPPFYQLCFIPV
CYP2C9, sequence (P11712 whole entry): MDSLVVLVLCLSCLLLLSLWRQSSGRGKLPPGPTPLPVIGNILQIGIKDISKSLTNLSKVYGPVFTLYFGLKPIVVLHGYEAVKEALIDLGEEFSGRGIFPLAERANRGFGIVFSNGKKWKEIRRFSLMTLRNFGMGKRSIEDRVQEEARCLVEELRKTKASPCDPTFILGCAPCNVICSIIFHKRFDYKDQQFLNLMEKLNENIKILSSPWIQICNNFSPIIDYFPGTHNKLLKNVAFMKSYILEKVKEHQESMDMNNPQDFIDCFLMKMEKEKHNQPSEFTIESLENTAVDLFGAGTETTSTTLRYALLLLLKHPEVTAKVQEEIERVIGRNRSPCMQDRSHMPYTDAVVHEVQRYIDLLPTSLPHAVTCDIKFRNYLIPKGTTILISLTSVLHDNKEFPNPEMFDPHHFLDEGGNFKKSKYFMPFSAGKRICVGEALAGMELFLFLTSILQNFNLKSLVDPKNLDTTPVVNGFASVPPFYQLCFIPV
CYP2D6, sequence (P10635 whole entry): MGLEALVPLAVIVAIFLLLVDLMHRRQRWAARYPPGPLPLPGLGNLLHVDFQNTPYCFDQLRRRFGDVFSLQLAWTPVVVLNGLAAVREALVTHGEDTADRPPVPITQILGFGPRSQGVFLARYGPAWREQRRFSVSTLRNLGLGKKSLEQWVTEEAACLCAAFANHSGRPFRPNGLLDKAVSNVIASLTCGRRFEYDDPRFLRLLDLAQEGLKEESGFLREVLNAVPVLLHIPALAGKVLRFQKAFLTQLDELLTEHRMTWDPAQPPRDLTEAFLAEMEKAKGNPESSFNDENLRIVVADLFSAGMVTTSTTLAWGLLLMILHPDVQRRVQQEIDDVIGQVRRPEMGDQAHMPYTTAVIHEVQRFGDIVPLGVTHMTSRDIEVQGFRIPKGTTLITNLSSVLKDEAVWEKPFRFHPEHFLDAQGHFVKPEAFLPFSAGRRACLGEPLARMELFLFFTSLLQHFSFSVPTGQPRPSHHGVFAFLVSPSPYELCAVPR
CYP3A4, sequence (P08684 whole entry): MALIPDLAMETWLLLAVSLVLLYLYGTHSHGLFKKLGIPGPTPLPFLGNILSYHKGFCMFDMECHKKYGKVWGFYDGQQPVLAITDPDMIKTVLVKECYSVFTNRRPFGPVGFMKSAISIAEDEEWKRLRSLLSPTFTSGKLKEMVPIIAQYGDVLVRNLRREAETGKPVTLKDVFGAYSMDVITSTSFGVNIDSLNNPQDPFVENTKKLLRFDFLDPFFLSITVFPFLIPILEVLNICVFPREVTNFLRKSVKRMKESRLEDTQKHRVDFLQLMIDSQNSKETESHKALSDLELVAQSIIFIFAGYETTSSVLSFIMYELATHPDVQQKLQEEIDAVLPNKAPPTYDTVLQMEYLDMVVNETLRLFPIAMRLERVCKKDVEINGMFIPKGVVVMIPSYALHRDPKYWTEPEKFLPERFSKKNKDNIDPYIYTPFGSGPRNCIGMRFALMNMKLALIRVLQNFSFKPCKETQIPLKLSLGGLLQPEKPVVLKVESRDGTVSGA
hERG (human ether-a-go-go related gene) channels, sequence (Q12809 whole entry): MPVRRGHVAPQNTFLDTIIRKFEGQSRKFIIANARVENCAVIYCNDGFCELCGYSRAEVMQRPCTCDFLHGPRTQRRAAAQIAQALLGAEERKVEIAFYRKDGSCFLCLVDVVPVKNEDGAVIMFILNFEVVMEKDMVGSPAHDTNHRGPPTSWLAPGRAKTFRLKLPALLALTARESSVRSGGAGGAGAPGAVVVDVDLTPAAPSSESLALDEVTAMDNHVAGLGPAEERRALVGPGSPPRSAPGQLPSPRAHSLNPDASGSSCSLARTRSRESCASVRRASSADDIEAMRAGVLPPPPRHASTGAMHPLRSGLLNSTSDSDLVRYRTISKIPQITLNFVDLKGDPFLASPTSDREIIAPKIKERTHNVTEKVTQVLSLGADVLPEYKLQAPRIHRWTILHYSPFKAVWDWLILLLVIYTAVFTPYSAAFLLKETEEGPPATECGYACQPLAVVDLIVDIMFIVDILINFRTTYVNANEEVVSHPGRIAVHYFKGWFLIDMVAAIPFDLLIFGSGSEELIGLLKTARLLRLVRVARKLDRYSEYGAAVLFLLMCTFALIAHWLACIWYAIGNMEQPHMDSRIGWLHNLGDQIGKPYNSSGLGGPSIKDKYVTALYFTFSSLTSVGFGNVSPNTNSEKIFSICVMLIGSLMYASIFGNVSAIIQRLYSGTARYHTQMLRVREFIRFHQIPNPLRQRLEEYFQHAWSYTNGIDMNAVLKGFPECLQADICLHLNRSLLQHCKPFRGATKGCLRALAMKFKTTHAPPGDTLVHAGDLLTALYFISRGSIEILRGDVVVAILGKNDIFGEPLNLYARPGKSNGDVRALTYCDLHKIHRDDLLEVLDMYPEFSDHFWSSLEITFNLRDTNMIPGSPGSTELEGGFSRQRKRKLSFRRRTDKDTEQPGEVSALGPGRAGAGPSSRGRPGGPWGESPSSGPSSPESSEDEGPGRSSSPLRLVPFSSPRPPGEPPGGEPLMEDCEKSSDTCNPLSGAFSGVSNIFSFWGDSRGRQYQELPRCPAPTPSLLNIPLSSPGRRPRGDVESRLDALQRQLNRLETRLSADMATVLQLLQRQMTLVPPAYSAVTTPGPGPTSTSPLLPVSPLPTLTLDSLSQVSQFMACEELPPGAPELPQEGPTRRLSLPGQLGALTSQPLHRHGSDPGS

CC(C)C[C@H](NC(=O)[C@@H](NC(=O)[C@H](Cc1ccc(O)cc1)NC(=O)[C@@H]1CCCN1C(=O)[C@H](CCCNC(=N)N)NC(=O)[C@@H](C)CCCCCN)C(C)(C)C)C(=O)O [ABS201, hLys-Arg-Pro-Tyr-t-Leu-Leu] (X1-RPY[Tle]L-OH)
inhibition of substrate binding (CYP1A2): No inhibition
micronucleus study result (mouse bone marrow cells): inactive
inhibition of substrate binding (CYP2C9): No inhibition
segment with maximal uptake ([1]; in situ looped models): intra-duodenum exhibiting the maximal amount of uptake
site of absorption in the GI tract ([1]; in situ looped models): absorbed almost entirely in the intestine
uptake in the stomach ([1]; intra-stomach): Virtually no ABS201 is taken up in the stomach
hERG study result [2]: inactive
inhibition of substrate binding (CYP2B6): No inhibition
distribution into blood cellular elements [3]: about 33%
lower limit for the MTD ([4]; rat, in vivo): ≥ 100 times the ED50
Toxicity, dose without toxicity ([4]; single acute dose I.P.): (>100 × ED50)
Toxicity ([4]; single acute dose at 100x ED50 administered I.P.): No
Catalepsy [5]: No
inhibition of substrate binding (CYP2D6): No inhibition
binding to plasma proteins [6]: little or no binding
inhibition of substrate binding (CYP2C19): No inhibition
inhibition of substrate binding (CYP3A4): No inhibition
time by which plasma levels decreased below the LLOD ([7]; IV 1 mg/kg): ≤ 45 min
clearance as % of rat hepatic blood flow ([7]; IV 5 mg/kg): 74.02%
time over which measurable in whole blood ([7]; IV 5 mg/kg): up to 120 minutes
time over which detectable in the blood and brain ([7]; IV 5 mg/kg or oral 50 mg/kg, LC/MS/MS): up to 120 minutes
